Source: patent publication US9469650B2, “Melampomagnolide B derivatives” (BOARD OF TRUSTEES OF THE UNIVERSITY OF ARKANSAS, priority 2013, dated 2016)

Assays:
[1] = tested on: LOX IMVI; experiment: panel of 60 human tumor cell lines, growth inhibition (Melanoma); details: Homo sapiens
[2] = tested on: UACC-257; experiment: as above
[3] = tested on: SF-268; experiment: panel of 60 human tumor cell lines, growth inhibition (CNS Cancer); details: Homo sapiens
[4] = tested on: SF-295; experiment: as above; details: Homo sapiens
[5] = tested on: SNB-19; experiment: as above; details: Homo sapiens
[6] = tested on: U251; experiment: as above; details: Homo sapiens
[7] = tested on: HCC-2998; experiment: panel of 60 human tumor cell lines, growth inhibition (Colon Cancer); details: Homo sapiens
[8] = tested on: SW-620; experiment: as above; details: Homo sapiens
[9] = tested on: A498; experiment: panel of 60 human tumor cell lines, growth inhibition (Renal Cancer); details: Homo sapiens
[10] = tested on: CAKI-1; experiment: as above; details: Homo sapiens
[11] = tested on: SN12C; experiment: as above; details: Homo sapiens
[12] = tested on: MDA-MB-231/ATCC; experiment: panel of 60 human tumor cell lines, growth inhibition (Breast Cancer); details: Homo sapiens
[13] = tested on: IGROV1; experiment: panel of 60 human tumor cell lines, growth inhibition (Ovarian Cancer); details: Homo sapiens
[14] = tested on: OVCAR-5; experiment: as above; details: Homo sapiens
[15] = tested on: PC-3; experiment: panel of 60 human tumor cell lines, growth inhibition (Prostate Cancer); details: Homo sapiens
[16] = tested on: A549/ATCC; experiment: panel of 60 human tumor cell lines, growth inhibition (Non-Small Cell Lung Cancer); details: Homo sapiens
[17] = tested on: HOP-62; experiment: as above; details: Homo sapiens
[18] = tested on: HOP-92; experiment: as above; details: Homo sapiens
[19] = tested on: NCI-H522; experiment: as above; details: Homo sapiens

Structure (SMILES): C=C1C(=O)O[C@H]2[C@H]1CC/C(COC(=O)OCCN(C)C)=C\CC[C@@]1(C)O[C@@H]21 [JVM 2-35]
- GI50 ([1]; NCI five dose): 5.16 µM
- CC50 ([1]; read-out: LC50): 47.5 µM
- IC (TGI) ([1]; read-out: TGI): 18.2 µM
- GI50 ([2]; Homo sapiens, UACC-257): 10.2 µM
- CC50 ([2]; Homo sapiens, UACC-257, read-out: LC50): 55.2 µM
- Percent Growth ([2]; UACC-257, Log10 Concentration −4.0): −85%
- Percent Growth ([2]; UACC-257, Log10 Concentration −5.0): 51%
- Percent Growth ([2]; UACC-257, Log10 Concentration −6.0): 92%
- Percent Growth ([2]; UACC-257, Log10 Concentration −7.0): 86%
- Percent Growth ([2]; UACC-257, Log10 Concentration −8.0): 93%
- TGI ([2]; UACC-257, NCI five dose): 2.38E−5
- GI50 ([3]; SF-268): 11.7 µM
- CC50 ([3]; SF-268, read-out: LC50): 69.3 µM
- IC (TGI) ([3]; SF-268, read-out: TGI): 28.5 µM
- GI50 ([4]; SF-295): 24.7 µM
- CC50 ([4]; SF-295, read-out: LC50): > 100 µM
- IC (TGI) ([4]; SF-295, read-out: TGI): > 100 µM
- GI50 ([5]; SNB-19): 18.6 µM
- CC50 ([5]; SNB-19, read-out: LC50): > 100 µM
- IC (TGI) ([5]; SNB-19, read-out: TGI): 62 µM
- GI50 ([6]; U-251): 20.3 µM
- CC50 ([6]; U-251, read-out: LC50): > 100 µM
- IC (TGI) ([6]; U-251, read-out: TGI): 45.2 µM
- GI50 ([7]; HCC 2998): 15.8 µM
- CC50 ([7]; HCC 2998, read-out: LC50): 61.9 µM
- IC (TGI) ([7]; HCC 2998, read-out: TGI): 31.3 µM
- GI50 ([8]; SW-620, SW-620, NCI five dose): 3.58 µM
- CC50 ([8]; SW-620, read-out: LC50): 50.6 µM
- IC (TGI) ([8]; SW-620, read-out: TGI): 15 µM
- GI50 ([9]; A498): 13.3 µM
- CC50 ([9]; A498, read-out: LC50): 56.6 µM
- IC (TGI) ([9]; A498, read-out: TGI): 27.4 µM
- GI50 ([10]; CAKI-1): 3.22 µM
- CC50 ([10]; CAKI-1, read-out: LC50): 39.9 µM
- IC (TGI) ([10]; CAKI-1, read-out: TGI): 15.6 µM
- GI50 [11]: 13.2 µM
- CC50 ([11]; read-out: LC50): > 100 µM
- IC (TGI) ([11]; read-out: TGI): 39.7 µM
- GI50 ([12]; MDA-MB-231): 5.86 µM
- CC50 ([12]; MDA-MB-231, read-out: LC50): 56.9 µM
- IC (TGI) ([12]; MDA-MB-231, read-out: TGI): 21.3 µM
- GI50 ([13]; IGROV-1): 17.7 µM
- CC50 ([13]; IGROV-1, read-out: LC50): > 100 µM
- IC (TGI) ([13]; IGROV-1, read-out: TGI): 44 µM
- GI50 ([14]; OVCAR-5): 13.1 µM
- CC50 ([14]; OVCAR-5, read-out: LC50): 57 µM
- IC (TGI) ([14]; OVCAR-5, read-out: TGI): 27.3 µM
- GI50 ([15]; PC-3): 14 µM
- CC50 ([15]; PC-3, read-out: LC50): 64.5 µM
- IC (TGI) ([15]; PC-3, read-out: TGI): 30 µM
- GI50 ([16]; A549): 16.3 µM
- CC50 ([16]; A549, read-out: LC50): 71.6 µM
- IC (TGI) ([16]; A549, read-out: TGI): 34.2 µM
- GI50 ([17]; HOP-62): 22.9 µM
- CC50 ([17]; HOP-62, read-out: LC50): > 100 µM
- IC (TGI) ([17]; HOP-62, read-out: TGI): 82.1 µM
- GI50 ([18]; HOP-92, HOP-92, NCI five dose): 2.69 µM
- CC50 ([18]; HOP-92, read-out: LC50): 35.8 µM
- IC (TGI) ([18]; HOP-92, read-out: TGI): 10.1 µM
- GI50 ([19]; NCI-H522): 1.5 µM
- CC50 ([19]; NCI-H522, read-out: LC50): 9.57 µM
- IC (TGI) ([19]; NCI-H522, read-out: TGI): 3.79 µM
